6 compounds from patent US20200361919A1, “DEUTERATED INDOLEAMINE 2,3-DIOXYGENASE INHIBITOR AND APPLICATION THEREOF” (NANJING TRANSTHERA BIOSCIENCES CO. LTD., priority 2017, published 2020) can be followed below.

Data set [1] relates to CT26 cells. The data set is described as follows: In vivo pharmacodynamics, subcutaneous homograft model with colon cancer cell CT26 in mouse. The arrangement: species or system Balb/C mice. The settings on record: 150 mg/kg PO Bid 10 days, CT26 tumor-bearing mice. As for the experimental part:
Test substance: Compound 1 of the present invention, which structure was shown in the foregoing.
CT26 cells were cultured in RPMI1640 medium containing 10% fetal bovine serum. CT26 cells in exponential growth phase were collected, and resuspended in PBS to a suitable concentration for subcutaneous tumor inoculation in mice.
0.1 mL of cell suspension (cells suspended in PBS) containing about 5×10^5 CT26 cells was subcutaneously inoculated into the skin of the right back of female Balb/C mice. The mice were grouped and administrated when the average tumor volume reached about 100 mm^3. Grouping method: weighing animals before administration, and measuring tumor volume. According to tumor volume, the mice were grouped using block design, 9 mice in each group.
Administration was performed according to Table 7 below.
The animals' health and death were monitored daily, their body weights and tumor volumes were measured twice a week, and samples were collected after the last dose. The curative effect of tumor volume was evaluated by TGI%, wherein relative tumor suppression rate TGI (%) was: TGI=1-T/C (%). T/C% was the relative tumor increment rate, that is, the percentage of tumor volume in the treatment group relative to that of the control group at a specific time point. […]

Data set [2] deals with T1, TDO (Homo sapiens, UniProt P48775).
T1 construct: made in house
T1 sequence (P48775 whole entry, species assumed): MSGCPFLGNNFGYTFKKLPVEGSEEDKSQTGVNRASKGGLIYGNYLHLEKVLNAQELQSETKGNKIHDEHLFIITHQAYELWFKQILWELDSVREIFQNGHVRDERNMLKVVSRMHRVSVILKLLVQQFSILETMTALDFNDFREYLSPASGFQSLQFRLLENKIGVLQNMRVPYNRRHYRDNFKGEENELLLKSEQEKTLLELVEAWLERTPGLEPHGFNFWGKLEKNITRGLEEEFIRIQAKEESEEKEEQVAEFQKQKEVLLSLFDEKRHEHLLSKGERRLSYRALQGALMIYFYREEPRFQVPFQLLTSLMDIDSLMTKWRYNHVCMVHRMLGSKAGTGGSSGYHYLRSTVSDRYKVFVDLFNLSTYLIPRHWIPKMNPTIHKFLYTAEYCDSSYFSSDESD
The data set is described as follows: Enzymatic assay, TDO. In kind it is biochemical. On the procedure:
(§1) Test substance: Compound 1 of the present invention, prepared according to the method of Example 1 or the Step 3 of Example 5
(§2) I. Experimental materials and instruments
(§3) Preparation of compound: The compound was made up into 1 mM compound mother liquor with DMSO, and then the compound was diluted 3.16 times with DMSO to obtain 10 concentration gradients (100×) of the compound of the diluted mother liquors..
(§4) Medication and incubation: 10 μL of 100× compound of the diluted mother liquors were added into a 96-well plate, to which was added 10 μL of enzyme solution (IDO-1 or TDO), centrifuged at 2000 rpm for 1 minute, and incubated at room temperature for 30 minutes. 4% DMSO enzyme-free solution was used as a negative control, and 4% DMSO enzyme-containing solution was used as a positive control. 20 μL of substrate mixture (L-tryptophan, ascorbate, methylene blue, catalase) was added and incubated for 1 hour at room temperature, then 20 μL of stop solution was added to the experimental plate to terminate the reaction. After shaking and mixing, incubation was carried out at 60° C. for 30 minutes. […]
(§5) Detection: A microplate reader was used to detect the absorbance value at 492 nm.
(§6) Calculation: The inhibition rate was calculated according to the following formula, using the Spectramax program to fit the curve slope, and using GraphPad Prism5.0 to fit the IC50: […]

For data set [3], the system named is Hela cells. The experiment in a line: Cytological evaluation in rhIFN-γ stimulated Hela cells. In kind it is cell-based. Conditions: rhIFN-γ 50 ng/ml, read-out: Hela Cell IC50. On the procedure: Test substances: Compounds 1-3 of the present invention, prepared as described in the previous specific Examples.
Hela cell line (Cell Bank, Chinese Academy of Sciences)
Recombinant human IFN-γ (rhIFN-γ, purchased from R&D Systems, Cat. No. 285-IF-100)
Cell plating: Hela cell suspension was prepared with fresh phenol red-free DMEM medium, and 20,000 cells/well were added to a 96-well cell culture plate, and cultured in 5% carbon dioxide at 37° C. overnight.
Preparation of compounds: the compounds were made up into 0.5 mM solution with DMSO, and the compounds were diluted 3.16 times with DMSO to obtain 8 compound mother liquors of concentration gradients (500×), and diluted with cell culture medium to prepare 10× dilutions.
Medication and incubation: After the cells were seeded and cultured overnight, 10 μL of a compound of the corresponding diluted mother liquor (10×) was added to each well and incubated for 1 hour, then 10 μL of 500 ng/ml rhIFN-γ was added, the final volume of each well was 100 μL. The negative control wells contained 100 μL of 0.5% DMSO cell culture medium and Hela cells. The positive control wells were the wells where rhIFN-γ at a final concentration of 50 ng/ml was added to the negative control wells, and the background control wells contained 100 μL of cell culture medium. After incubation in a 37 ° C. incubator for 24 hours. the cell morphology was observed under an inverted microscope.
Detection: After the cell plate was centrifuged, 80 μL of the supernatant was taken and added to a Corning 96-well plate, 10 μL of trichloroacetic acid was added to each well, shaken, placed in a 60 ° C. incubator for 30 minutes, and centrifuged at 2500 rpm for 5 minutes. 45 μL of the supernatant was taken and transferred to a new plate, 45 μL of chromogenic solution was added, shaken to make the reaction uniform. After incubating at room temperature for 15 minutes, the absorbance at 492 nm wavelength was read.

Data set [4] is described as follows: Evaluation of pharmacokinetics in mice. It counts as in vivo, C57BL/6 female mice. The settings on record: for Cl_obs / Vz_obs / tz 1/2 / AUC(0-t) / AUC(0-inf): IV 5 mg/kg, C57BL/6 female mice, mean; for AUC(0-t) / AUC(0-inf): mouse, plasma; for AUC(0-inf): read-out: AUCINF_obs. As for the experimental part:
Test substance: Compound 1 of the present invention,prepared according to the method of Example 1 or Step 3 of Example 5;
Compound R, prepared as described in Example 8.
Animal: C57BL/6 female mice
The Compound 1 used in the test was dissolved in 10% DMA+10% (30% solutol)+80% saline to prepare a solution, and the non-deuterated compound was dissolved in 10% DMA+10% PEG+80% saline to prepare a solution. C57BL/6 female mice were administered intravenously with Compound 1 at a dose of 5.0 mg/kg. The time points for blood sampling were: 5 min, 15 min, 30 min, 1 h, 2 h, 4 h, 6 h, 8 h, and 24 h. About 100 μL of blood was collected from the venous plexus, and the blood sample was placed in an anti-coagulation tube containing EDTA-K2. The blood sample was centrifuged at 8000 rpm for 6 minutes at 4° C. to obtain a plasma sample, wherein the plasma must be prepared within 30 minutes after blood sampling, and stored in −80° C. refrigerator before plasma testing.
The sample (−80° C.) to be tested was taken out from the refrigerator, melted at room temperature and vortexed for 5 minutes; 10 μL of plasma samples of 3 different individuals were precisely pipetted into 1.5 mL centrifuge tubes (for standard curve of plasma, 30 μL); 200 μL of 100 ng/mL internal standard working solution was added, and mixed well; vortexed for 5 min, then centrifuged for 5 min (12000 rpm); precisely pipetted 50 μL of supernatant into a 96-well plate to which was added 150 μL/well of water in advance; vortexed and mixed for 5 min. The injection volume was 15 μL, and LC-MS/MS measurement was carried out.
The concentrations of test substance were used from the analysis results of AB Analyst 1.6.3. Microsoft Excel was used to calculate the parameters such as mean, standard deviation, and coefficient of variation (those directly output from Analyst 1.6.3 were not calculated). The PK parameters were calculated using Pharsight Phoenix 6.1 software NCA.

For data set [5], the target named is T2, IDO-1 (Homo sapiens, UniProt P14902).
T2 construct: made in house
T2 sequence (P14902 whole entry, species assumed): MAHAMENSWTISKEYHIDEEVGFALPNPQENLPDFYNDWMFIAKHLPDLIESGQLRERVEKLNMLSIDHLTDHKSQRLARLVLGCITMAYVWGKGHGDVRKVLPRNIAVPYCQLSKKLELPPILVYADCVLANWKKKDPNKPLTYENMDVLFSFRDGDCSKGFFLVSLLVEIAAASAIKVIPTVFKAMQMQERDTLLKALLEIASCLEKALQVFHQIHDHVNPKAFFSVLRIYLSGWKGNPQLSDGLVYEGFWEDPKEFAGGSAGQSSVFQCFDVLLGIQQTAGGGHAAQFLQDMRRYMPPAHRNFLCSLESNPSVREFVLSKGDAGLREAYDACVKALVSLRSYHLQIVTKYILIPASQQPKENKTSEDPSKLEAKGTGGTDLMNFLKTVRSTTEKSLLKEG
The experiment in a line: Enzymatic assay, IDO-1. It counts as biochemical. As for the experimental part: as §1, §2, §3, §4, §5, §6

Data set [6] can be described thus: Stability test of Crystalline Form A. In kind it is physicochemical. An excerpt: Method: Crystalline Form A was left open at high temperature and in high humidity conditions, and XRPD patterns were compared to […]. The data in Table 5 below were obtained.
Data set [7] is described as follows: Stability test of Crystalline Form B. It counts as physicochemical. An excerpt:
Method: Crystalline Form B was left open for 10 days at high temperature and in high humidity conditions. The properties, measured content and impurities of the Crystalline Form B were observed, and the XRPD patterns were compared to obtain the data in Table 6.

[8] abbreviates: IV 5 mg/kg mice, compared with Compound R.
The mark [9] stands for this setting: High temperature, 60° C., left open, 10 days.

SMILES strings stand for the structures. Where two headings read alike, the source gives them in different places.

In the case of `[2H]C1([2H])CC(Nc2nonc2C(=NO)Nc2ccc(F)c(Br)c2)CC([2H])([2H])S1(=O)=O` [Compound 1, N-(3-bromo-4-fluorophenyl)-4-((1,1-dioxotetrahydro-2H-thian-4-yl-2,2,6,6-d4)amino)-N′-hydroxy-1,2,5-oxadiazole-3-carboxamidine], in data set [1], the “TGI (tumor volume inhibition rate)” value is on record as 38% and the Tumor volume came to 414.32 ± 52.44 mm^3. The IC50 in data set [2] was found to be 5040 nM. Further, in data set [3] (24 hours), the IC50 came to 99.7 nM. In data set [4] (setting [8]), the “clearance rate (in words)” value is listed as “lower” and the “exposure amount (in words)” value is “higher”. In data set [4], the Cl_obs came out at 36.5 mL/min/kg, the Vz_obs was found to be 11.7 L/kg, the “tz 1/2” value is listed as 3.70 h and the AUC(0-t) was found to be 2040 ng·h/mL. In addition, in data set [4], the AUC(0-inf) was determined as 2290 ng·h/mL. Besides, in data set [5], inhibition was half-maximal at 85.4 nM (IC50).

On to `[2H]C1([2H])CC(Nc2nonc2C(=NO)Nc2ccc(F)c(Br)c2)C([2H])([2H])S1(=O)=O` (stereo not drawn) [Compound 2, N-(3-bromo-4-fluorophenyl)-4-((1,1-dioxotetrahydro-thiophen-3-yl-2,2,5,5-d4)amino)-N-hydroxy-1,2,5-oxadiazole-3-carboxamidine], for which, in data set [3] (Homo sapiens, HeLa, 24 h), the IC50 amounted to 50.5 nM.

As for `[2H]C1([2H])C(Nc2nonc2C(=NO)Nc2ccc(F)c(Br)c2)C([2H])([2H])S1(=O)=O` [Compound 3, N-(3-bromo-4-fluorophenyl)-4-((1,1-dioxothiacyclobutan-3-yl-2,2,4,4-d4)amino)-N′-hydroxy-1,2,5-oxadiazole-3-carboxamidine], in data set [3] (Homo sapiens, HeLa, 24 h), the half-maximal inhibitory concentration (IC50) amounted to 49.6 nM.

For `O=S1(=O)CCC(Nc2nonc2C(=NO)Nc2ccc(F)c(Br)c2)CC1` [Compound R, N-(3-bromo-4-fluorophenyl)-4-((1,1-dioxotetrahydro-2H-thian-4-yl)amino)-N′-hydroxy-1,2,5-oxadiazole-3-carboxamidine, reference compound], in data set [4], the Cl_obs is 73.2 mL/min/kg, the Vz_obs came out at 12 L/kg, the “tz 1/2” value turned out to be 1.81 h and the AUC(0-t) was 1120 ng·h/mL. Further, in data set [4], the AUC(0-inf) was determined as 1140 ng·h/mL.

With `[2H]C1([2H])CC(Nc2nonc2C(=NO)Nc2ccc(F)c(Br)c2)CC([2H])([2H])S1(=O)=O` [Crystal Form A of Compound 1], the “Impurity, %” value in data set [6] (0-Day) was determined as 0.74%; in data set [6] (RH 92.5%, left open, 10 days), 0.99%. In addition, the XRPD entry in data set [6] (0-Day) is “Crystal Form A, FIG. 1”; in data set [6] (High temperature, 105° C., left open, 3 days), “Consistent with the 0-day XRPD”; in data set [6] (RH 92.5%, left open, 3 days), “Consistent with the 0-day XRPD”. Also, the half-inhibitory concentration (IC50) in data set [3] (24 hours) worked out at 40 nM.

`[2H]C1([2H])CC(Nc2nonc2C(=NO)Nc2ccc(F)c(Br)c2)CC([2H])([2H])S1(=O)=O` [Crystal Form B of Compound 1]: the IC50 in data set [3] (24 hours) turned out to be 30 nM. In data set [7] (0-Day), the “Content, %” value turned out to be 99.6%; the “Impurity, %” value is given as 0.17%; the Properties entry is listed as “Off-white”; the XRPD result is listed as “Crystal Form B,”. Further, in data set [7] (setting [9]), the “Content, %” value was determined as 99.4%; the “Impurity, %” value is listed as 0.16%; the Properties entry is listed as “Off-white”. Further, in data set [7] (RH 92.5%, left open, 10 days), the “Content, %” value was 99.3%; the “Impurity, %” value is listed as 0.15%; the Properties entry is reported as “Off-white”.

As a reminder, the IC50 is the concentration at which inhibition is half-maximal. By AUC(0-t) is commonly meant the area under the concentration-time curve up to a stated or last time point. High values mean high exposure, low ones low exposure.
